These results are taken from paper PMC10786919, “Design-rules for stapled peptides with in vivo activity and their application to Mdm2/X antagonists” (Nature Communications, 2024).

By EC50 is commonly meant the concentration giving half of the maximal effect. A higher EC50 goes with lower potency in that assay.

Positions of bridges follow the written chain, without caps; N, C: chain ends. Non-standard residues stand in square brackets, D forms with d. Residues, ends and D or L forms follow the SMILES beside them. R8 = C=CCCCCCC[C@@](C)(N)C(=O)O; Cit = NC(=O)NCCC[C@H](N)C(=O)O; S5 = C=CCCC[C@](C)(N)C(=O)O; Dab = NCC[C@H](N)C(=O)O; Ahx = NCCCCCC(=O)O

Data set [1] concerns HCT116 cells. The experiment in a line: Lactate dehydrogenase (LDH) release assay. The class given is cell-based. The protocol:
(§1) HCT116 cells were stably transfected with a p53 responsive β-lactamase reporter and expanded in McCoy’s 5 A Medium with 10% fetal bovine serum (FBS), Blasticidin, and Penicillin/Streptomycin and then transferred to 1.5 ml freezing vials and stored under liquid nitrogen in growth media containing 5% DMSO. […] The cells were then seeded into a 384-well plate at a density of 8000 cells per well. […] The final working concentration of DMSO was 0.5%. Lactate dehydrogenase release was detected using the CytoTox-ONE Homogenous Membrane Integrity Assay Kit (Promega), as per the manufacturer’s instructions. Measurements were carried out using the Tecan plate reader. […] Measurements were taken a minimum of three times (biological replicates) and values are reported as geometric means of the replicates.

Data set [2] can be described thus: Lactate dehydrogenase (LDH) release assay. The class given is cell-based. The protocol:
as §1

Regarding `CC(=O)N[C@@H](CCCCN=[N+]=[N-])C(=O)NCCC(=O)N[C@@H](CC(C)C)C(=O)N[C@H](C(=O)N[C@@H](Cc1ccccc1)C(=O)N[C@]1(C)CCCCCCC=CCCC[C@@](C)(C(=O)N[C@@H](CO)C(=O)N[C@@H](C)C(=O)N[C@@H](C)C(N)=O)NC(=O)[C@H](CC2CCC2)NC(=O)[C@H](CCC(N)=O)N(C)C(=O)[C@H](C)NC(=O)[C@H](Cc2c[nH]c3ccccc23)NC(=O)[C@H](Cc2ccc(O)cc2)NC(=O)[C@H](CCC(=O)O)NC1=O)[C@@H](C)O` [MP-499], in data set [1], the “LDH: Cytotoxicity assay: % Effect” value stood at 13.75%. Besides, in data set [2] (LDH: Cytotoxicity assay: EC50), the EC50 is more than 50.6 µM.
As for `CC(=O)N[C@@H](CCN)C(=O)N[C@@H](CCN)C(=O)NCCCCCC(=O)N[C@H](C(=O)N[C@@H](CO)C(=O)N[C@@H](Cc1ccccc1)C(=O)N[C@]1(C)CCCCCCC=CCCC[C@@](C)(C(=O)N[C@@H](CCC(=O)O)C(=O)N[C@@H](CC(N)=O)C(=O)N[C@@H](Cc2ccccc2)C(N)=O)NC(=O)[C@H](CC(C)C)NC(=O)[C@H](CC(C)C)NC(=O)[C@H](C)NC(=O)[C@H](Cc2c[nH]c3ccccc23)NC(=O)[C@H](Cc2ccc(O)cc2)NC(=O)[C@H](CCC(=O)O)NC1=O)[C@@H](C)O` [MP-664] (Ac-[Dab][Dab][Ahx]TSF[R8]EYWALL[S5]ENF-NH2; staple 7-14), the “LDH: Cytotoxicity assay % Effect” value in data set [1] worked out at 4.71%. In data set [2] (LDH: Cytotoxicity assay EC50), this compound had an EC50 of more than 50 µM.
The matching figures for `CC(=O)N[C@@H](CN)C(=O)NCCCCCC(=O)N[C@H](C(=O)N[C@@H](CO)C(=O)N[C@@H](Cc1ccccc1)C(=O)N[C@]1(C)CCCCCCC=CCCC[C@@](C)(C(=O)N[C@@H](CCC(=O)O)C(=O)N[C@@H](CC(N)=O)C(=O)N[C@@H](Cc2ccccc2)C(N)=O)NC(=O)[C@H](CC(C)C)NC(=O)[C@H](CC(C)C)NC(=O)[C@H](C)NC(=O)[C@H](Cc2c[nH]c3ccccc23)NC(=O)[C@H](Cc2ccc(O)cc2)NC(=O)[C@H](CCC(=O)O)NC1=O)[C@@H](C)O` [MP-665]: 4.993% and more than 50 µM.
The matching figures for `CC(=O)N[C@@H](CCN)C(=O)NCCCCCC(=O)N[C@H](C(=O)N[C@@H](CO)C(=O)N[C@@H](Cc1ccccc1)C(=O)N[C@]1(C)CCCCCCC=CCCC[C@@](C)(C(=O)N[C@@H](CCC(=O)O)C(=O)N[C@@H](CC(N)=O)C(=O)N[C@@H](Cc2ccccc2)C(N)=O)NC(=O)[C@H](CC(C)C)NC(=O)[C@H](CC(C)C)NC(=O)[C@H](C)NC(=O)[C@H](Cc2c[nH]c3ccccc23)NC(=O)[C@H](Cc2ccc(O)cc2)NC(=O)[C@H](CCC(=O)O)NC1=O)[C@@H](C)O` [MP-666]: 15.43% and more than 50 µM.
The matching figures for `CC(=O)N[C@H](C(=O)N[C@@H](CCCNC(N)=O)C(=O)N[C@@H](CCCCN)C(=O)NCCCCCC(=O)N[C@H](C(=O)N[C@@H](CO)C(=O)N[C@@H](Cc1ccccc1)C(=O)N[C@]1(C)CCCCCCC=CCCC[C@@](C)(C(=O)N[C@@H](CCC(=O)O)C(=O)N[C@@H](CC(N)=O)C(=O)N[C@@H](Cc2ccccc2)C(N)=O)NC(=O)[C@H](CC(C)C)NC(=O)[C@H](CC(C)C)NC(=O)[C@H](C)NC(=O)[C@H](Cc2c[nH]c3ccccc23)NC(=O)[C@H](Cc2ccc(O)cc2)NC(=O)[C@H](CCC(=O)O)NC1=O)[C@@H](C)O)C(C)C` [MP-668] (Ac-V[Cit]K[Ahx]TSF[R8]EYWALL[S5]ENF-NH2; staple 8-15): 4.429% and more than 50 µM.
In the case of `CC(=O)N[C@H](C(=O)N[C@@H](CCCNC(N)=O)C(=O)N[C@@H](CC(C)C)C(=O)N[C@H](C(=O)N[C@@H](Cc1ccccc1)C(=O)N[C@]1(C)CCCCCCC=CCCC[C@@](C)(C(=O)N[C@@H](CO)C(=O)N[C@@H](C)C(=O)N[C@@H](C)C(N)=O)NC(=O)[C@H](CC2CCC2)NC(=O)[C@H](CCC(N)=O)NC(=O)[C@H](C)NC(=O)[C@H](Cc2c[nH]c3ccccc23)NC(=O)[C@H](Cc2ccc(O)cc2)NC(=O)[C@H](CCC(=O)O)NC1=O)[C@@H](C)O)C(C)C` [MP-669], the “LDH: Cytotoxicity assay % Effect” value in data set [1] is reported as 9.923%. This compound also had an EC50 in data set [2] (LDH: Cytotoxicity assay EC50) of more than 50 µM.
